Measured values as given in patent publication US8529872B2, “Seeds and markers for use in imaging” (Board of Regents, The University of Texas System, priority 2007, dated 2013).
Read-outs that look alike come from different tables or passages of the source.

What was measured:
[1] = cited from earlier work
[2] = Octanol-water partition coefficient; assay type: physicochemical
Procedure: […] The resulting biphasic solution was shaken vigorously for two hours at which point 400 μL of the octanol layer and 400 μL of the water layer were removed. The solvent from each sample was removed under reduced pressure and the mass of the compound in the octanol sample was divided by the mass of the compound in the water sample. This experiment was repeated in triplicate, and the results were averaged to give the Log (Poct/wat) values. All complexes were completely soluble in the mixture of octanol and water.

[3] = pH of aqua solution of contrast agent; assay type: physicochemical
Procedure: For preparation of aqua solution of contrast agent, the as-synthesized cobalt/glycine crystallites were dissolved in distillated water (0.3-10 wt %) and stirred at the room temperature with a magnetic stir bar for 1 h and then sonicated for 30 min.
The value of pH varied from 2.6 to 6.5.

[4] = Viscosity of contrast agent solution (Brookfield viscometer); assay type: physicochemical; details: room temperature
Procedure: Viscosity of contrast agent solution was measured at room temperature by using Brookfield digital viscometer DV-II.

[5] = Surface tension of contrast agents (Fisher 21 tensiometer); assay type: physicochemical
From the text: The Fisher 21 tensiometer was used to measure surface tension of contrast agents with accuracy t within +/−0.25%.

[6] = Magnetic properties of contrast agent solutions by VSM; assay type: physicochemical
Procedure: The magnetic properties of contrast agent solutions were determined by VSM (Vibrating Sample Magnetometer) at room temperature and magnetic field up to 1.5 T.
FIG. 20a-20d show the magnetic properties of various aqua solutions of Co/glycine with concentration 1, 3, 5, 8 and 10%.

[7] = MR relaxation measurements of C4 complex at 1.5 T; assay type: physicochemical; details: for T1 (ms) μ / T2 (ms) μ: 1.5T, 23° C.
Procedure: (§1) MR imaging measurements were performed on a 1.5 T clinical scanner (Excite HD, GEHT, Waukesha, Wis.) to characterize the relaxation properties of the new cobalt complex after each new modification of the C4 chemistry was made. Several iterations were performed before obtaining a stable sample. Additional measurements at 3.0 T (Excite HD, GEHT, Waukesha, Wis.) were made once the design of the C4 complex was stable. Each session or iteration (n=5) took approximately 2 hours to collect all the relaxation data.
[…] Theses solutions were placed in a water bath and imaged at room temperature (23° C.). Experiments were performed to ascertain the spin-lattice relaxivity (R1), spin-spin relaxivity (R2) and true spin-spin relaxivity (R2*) at 1.5 T and 3 T using a volume knee coil to excite and receive the MR signal.
(§2) R1 measurements were performed using a spin-echo inversion recovery (SE-IR) sequence with parameters: Inversion Time (TI)={0.05, 0.1, 0.2, 0.3, 0.4, 0.5, 0.6, 0.7, 0.8, 0.9, 1.0, 1.2, 1.4, 1.6, 1.8, 2.0} sec, Pulse Repetition Time (TR)=5000, Time to Echo (TE)=10 ms, slice thickness=3 mm, acquisition matrix=256 (frequency)×128 (phase), receiver bandwidth (rBW)=±15 kHz and the number of excitations (NEX)=1.
(§3) R2 measurements were carried out using an SE sequence with parameters: TE={15, 20, 40, 60, 100, 150, 200, 250, 300 and 500 ms}, TR=5000 ms, slice thickness=3 mm, matrix size=256×128, rBW=±15 kHz and NEX=1.
(§4) The slopes of R1 and R2 curve versus concentration were used to determine the relaxivity (r1 and r2) in mM^−1 s^−1 as shown in the following tables. A weighted least-linear squares fitting routine was written in MATLAB to calculate the fit parameters accounting for the uncertainty as well as calculating the net uncertainty in the derived measurement. Note that in the final quantitative analysis, R2* measurements are excluded since the samples seemed to have interfering magnetic effects that could alter results.

[8] = MR relaxation measurements of C4 complex at 3.0 T; assay type: physicochemical; details: 3.0T; for T1 (ms) μ / T2 (ms) μ: 23° C.
Procedure: as §1
Concentrations of the complex were prepared in 0.1%, 0.3%, 0.5%, 0.75% and 1.0% solutions provided by the UH group. Theses solutions were placed in a water bath and imaged at room temperature (23° C.). Experiments were performed to ascertain the spin-lattice relaxivity (R1), spin-spin relaxivity (R2) and true spin-spin relaxivity (R2*) at 1.5 T and 3 T using a volume knee coil to excite and receive the MR signal.
as §2, §3, §4

[9] = Characterization of the C4 complex at 7 T; assay type: physicochemical; design: T2 / T1 / T2* / T2*-2: unit not given here; details: for T2*-2: second T2* measurement
Procedure: […] Characteristic T1, T2, and T2* relaxation times of the preparations were measured at each concentration. T1 measurements were made using a fast spin-echo saturation-recovery sequence (TE=63 ms; TR=400 ms, 500 ms, 1000 ms, 1500 ms, 2500 ms, 500 ms; FOV=3.2 cm×3.2 cm; matrix=64×64; echo train length=12; slice thickness=1 mm). T2 measurements were made using a CPMG multi-spin-echo sequence (TE=n×15 ms, 1≦n≦24; TR=1100 ms). T2* measurements were made using a multi-gradient echo sequence (TE=1.5 ms+n×[…], 0≦n≦15; TR=500 ms, 4000 ms). The image matrix and slice prescription for all measurements were kept constant. The characteristic T1, T2, and T2* relaxation time constants of each compartment were measured using Paravision 4.0, and the relaxivities of the contrast agent were estimated by fitting measured data to the Solomon-Bloembergen-Morgan model using Matlab.

[10] = Temporal stability of R1 of the cobalt complex; assay type: physicochemical; details: taken 54 days apart
[11] = T1 relaxivity of Gd-chelated polymeric contrast agent at 1.5 T; assay type: physicochemical
From the text: A Gd-chelated polymeric MRI contrast agent 20 (Gd Hydrogel) based on a biodegradable, biocompatible poly(L-glutamic acid) (L-PG) backbone was also synthesized and characterized. […] “Blooming” occurs with MR imaging when the contrast agent 20 is encapsulated by titanium and cannot be visualized due to the susceptibility artifacts
To characterize the contrast agents 20, they were filtrated and injected into the glass capillary tube with 4 mm in length and OD=0.8 mm, ID=0.5 mm with volume of 0.5-1 μL. Water-proton relaxivities were measured at variable temperature (278-335 K), and as a function of magnetic field (1.5 T, 3 T, 4.7 T, and 7 T). Slight differences between the relaxivities of these agents at different field strengths will require slightly different concentrations for optimal visibility at these field strengths. By pH dependency of the proton relaxivities we will evaluate the synthesized CAM for pH-responsive MRI contrast agent 20 applications. Although 4.7 T is not a field strength commonly associated with clinical MRI, it complements the data collected at more clinically relevant field strengths and helps to identify trends in agent relaxivity.

[12] = 1.5 T (23° C.), De Bazelaire 2004

Molecule: CNC[C@H](O)[C@@H](O)[C@H](O)[C@H](O)CO.CNC[C@H](O)[C@@H](O)[C@H](O)[C@H](O)CO.O=C([O-])CN(CCN(CC(=O)[O-])CC(=O)O)CCN(CC(=O)[O-])CC(=O)O.[Gd+3] [Magnevist]
- r2/r1 [1, 12]: 1.12±0.01
- relaxivity r1 [1, 12]: 4.68 ± 0.06 mM/s
- relaxivity r2 [1, 12]: 5.57 ± 0.07 mM/s
- relaxivity ([1]; 1.5 T in phosphate-buffered saline, Unger 1999): 4.1 mM⁻¹ s⁻¹
- T1 relaxivity ([1]; 7 T, for reference): approximately 5.3 (mM·s)^−1

Molecule: (CoCl2)n(C2H5NO2)1-n [Example C4]
- Partition Coefficient, Log P ([2]; contrast agent solution 0.5 %): (−0.15) −
- Partition Coefficient, Log P ([2]; contrast agent solution 5 %): (−0.09)
- pH ([3]; contrast agent solution 0.5 %): 6.1
- pH ([3]; contrast agent solution 5 %): 3.2
- Viscosity ([4]; contrast agent solution 0.5 %): 1.0 cP
- Viscosity ([4]; contrast agent solution 5 %): 1.1 cP
- Surface tension ([5]; contrast agent solution 0.5 %): 72.8 dynes/cm
- Surface tension ([5]; contrast agent solution 5 %): 73.6 dynes/cm
- Magnetic properties ([6]; contrast agent solution 0.5 %): paramagnetic
- Magnetic properties ([6]; contrast agent solution 5 %): paramagnetic
- T1 relaxation time ([7]; 0.1%-8.25 mM): 782 ms
- relaxivity r1 ([7]; 1.5 T): 0.086 ± 0.006 mM/s
- relaxivity r1, Slope μ ([7]; 1.5 T): 0.086 mM⁻¹ s⁻¹
- relaxivity r2 ([7]; 1.5 T): 0.097 ± 0.010 mM/s
- T1 (ms) μ ([7]; 0.10 % Wt, 8.25 mM): 782.0 ms
- T2 (ms) μ ([7]; 0.10 % Wt, 8.25 mM): 836.0 ms
- T1 (ms) μ ([7]; 0.30 % Wt, 24.76 mM): 379.0 ms
- T2 (ms) μ ([7]; 0.30 % Wt, 24.76 mM): 354.0 ms
- T1 (ms) μ ([7]; 0.50 % Wt, 41.27 mM): 235.0 ms
- T2 (ms) μ ([7]; 0.50 % Wt, 41.27 mM): 215.0 ms
- T1 (ms) μ ([7]; 0.75 % Wt, 61.90 mM): 172.0 ms
- T2 (ms) μ ([7]; 0.75 % Wt, 61.90 mM): 153.0 ms
- T1 (ms) μ ([7]; 1.00 % Wt, 82.53 mM): 130.0 ms
- T2 (ms) μ ([7]; 1.00 % Wt, 82.53 mM): 120.0 ms
- T1 relaxation time ([7]; 10%-825 mM): 61 ms
- relaxivity r1, Slope μ [8]: 0.070 mM⁻¹ s⁻¹
- T1 (ms) μ ([8]; 0.10 % Wt, 8.25 mM): 866.0 ms
- T2 (ms) μ ([8]; 0.10 % Wt, 8.25 mM): 530.0 ms
- T1 (ms) μ ([8]; 0.30 % Wt, 24.76 mM): 432.0 ms
- T2 (ms) μ ([8]; 0.30 % Wt, 24.76 mM): 215.0 ms
- T1 (ms) μ ([8]; 0.50 % Wt, 41.27 mM): 288.0 ms
- T2 (ms) μ ([8]; 0.50 % Wt, 41.27 mM): 124.0 ms
- T1 (ms) μ ([8]; 0.75 % Wt, 61.90 mM): 202.0 ms
- T2 (ms) μ ([8]; 0.75 % Wt, 61.90 mM): 104.0 ms
- T1 (ms) μ ([8]; 1.00 % Wt, 82.53 mM): 164.0 ms
- T2 (ms) μ ([8]; 1.00 % Wt, 82.53 mM): 105.0 ms
- R1 (T1 relaxivity estimate) [9]: R1 = 0.0979
- T1 relaxivity [9]: 0.0979 mM/s
- T2* relaxivity [9]: ~0.618 mM/s
- T2 relaxivity [9]: 0.502 mM/s
- T1 ([9]; 8.25 mM): 980.805
- T2 ([9]; 8.25 mM): 74.85
- T2* ([9]; 8.25 mM): 141.415
- T2*-2 ([9]; 8.25 mM): 146.68
- T1 ([9]; 24.76 mM): 524.66
- T2 ([9]; 24.76 mM): 45.175
- T2* ([9]; 24.76 mM): 50.42
- T2*-2 ([9]; 24.76 mM): 52.755
- T1 ([9]; 41.27 mM): 533.955
- T2 ([9]; 41.27 mM): 31.14
- T2* ([9]; 41.27 mM): 32.37
- T2*-2 ([9]; 41.27 mM): 34.135
- T1 ([9]; 61.9 mM): 160.45
- T2 ([9]; 61.9 mM): 22.96
- T2* ([9]; 61.9 mM): 24.85
- T2*-2 ([9]; 61.9 mM): 25.55
- T1 ([9]; 82.53 mM): 116.5
- T2 ([9]; 82.53 mM): 20.84
- T2* ([9]; 82.53 mM): 17.99
- T2*-2 ([9]; 82.53 mM): 17.64
- degradation or breakdown over time: difference between two R1 measurements [10]: no statistically significant difference was observed

Molecule: L-PG-Bz-DTPA-Gd
- T1 relaxivity [11]: 25 mM⁻¹ s⁻¹
- T1 relaxivity, times greater than that of Gd-DTPA [11]: more than 6 times
